Where no end group is shown, it is not given here.
Columns and labels:
Assay in all cases: Flow cytometry of FITC labeled HER2 mimics
HEK293 cells = assay type: cell-based, human; conditions: HEK 293, 10 μM, 15 minutes
Experimental: (§1) Flow cytometric studies were carried out to quantify the fluorescence intensity of cells after being incubated with FITC labeled mimics. MDA-MB-361, ZR-75-1 and HEK293 cells were seeded in 6-well culture plates at a density of 3×10^5 cells per well for 24 hours and then incubated with FITC labeled mimics at a concentration of 10 μM in HBSS at 37° C. for 15 minutes. After washing with HBSS twice, cells remaining on the plates were trypsinized with Trpsin-EDTA and centrifuged at 1500 rpm for 5 min. Supernatant was removed and cell pellets were resuspended in 1 ml of HBSS. The suspension was transferred to a FACS Calibur™ flow cytometer and cell fluorescence was measured with high dynamic range photomultipliers with a 530 nm filter. Quantitative changes of fluorescence in different cells samples were assessed by mean fluorescence intensity (MFI), and FACS data were analyzed using BD CellQuest™ Pro software. Paired t-tests were used to determine statistical significance using the GraphPad Prism 5® Software. P-values less than or equal to 0.05 were considered to be statistically significant.

MDA-MB-361 cells = assay type: cell-based; conditions: MDA-MB-361, 10 μM, 15 minutes
Experimental: as §1

ZR-75-1 cells = assay type: cell-based; conditions: ZR-75-1, 10 μM, 15 minutes
Experimental: as §1

For “FITC-HER2-PEP22: FITC labeled control peptide HER2-PEP22 (TSPQGYPNDAGFLGRESTN; not fully specified (N-terminus); also: FITC labeled)”, the MFI (HEK293 cells) was 14.7±1.7, the MFI (MDA-MB-361 cells) was 22.1±0.5 and the MFI (ZR-75-1 cells) was 19.6±3.2.
